# Experimental data: patent US4939133A, “N-substituted-2-hydroxy-α-oxo-benzeneacetamides and pharmaceutical compositions having activity as modulators of the arachidonic acid cascade” (Warner-Lambert Company, priority 1985, dated 1990)
# Biological target: T1, 5-lipoxygenase (isolated human leukocytes) (Homo sapiens, UniProt P09917)
# T1 construct: 5-Lipoxygenase Assay Using Isolated Human Leukocytes (5LOA2); endogenous in cells; host or cells: isolated human blood leukocytes, platelets removed
# T1 sequence (P09917 1-674): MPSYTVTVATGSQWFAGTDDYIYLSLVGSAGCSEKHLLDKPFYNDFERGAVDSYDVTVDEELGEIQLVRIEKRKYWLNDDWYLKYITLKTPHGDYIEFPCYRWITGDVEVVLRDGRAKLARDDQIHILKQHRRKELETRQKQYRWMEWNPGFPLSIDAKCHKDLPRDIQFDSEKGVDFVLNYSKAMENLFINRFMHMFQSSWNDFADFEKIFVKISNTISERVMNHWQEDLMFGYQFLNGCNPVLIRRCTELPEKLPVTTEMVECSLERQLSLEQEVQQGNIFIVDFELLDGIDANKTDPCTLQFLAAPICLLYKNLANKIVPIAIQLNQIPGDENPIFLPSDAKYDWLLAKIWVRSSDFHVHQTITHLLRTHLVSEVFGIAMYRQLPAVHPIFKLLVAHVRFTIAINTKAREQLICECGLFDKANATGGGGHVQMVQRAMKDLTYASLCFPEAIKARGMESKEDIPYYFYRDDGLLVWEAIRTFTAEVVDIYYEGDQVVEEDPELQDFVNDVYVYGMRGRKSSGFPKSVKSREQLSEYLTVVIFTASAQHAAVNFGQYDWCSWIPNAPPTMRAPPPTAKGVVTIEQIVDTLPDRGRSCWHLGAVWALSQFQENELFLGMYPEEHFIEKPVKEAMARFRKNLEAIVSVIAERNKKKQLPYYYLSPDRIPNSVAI
# Experiment: 5-Lipoxygenase Assay Using Isolated Human Leukocytes (5LOA2)
# Format: cell-based
# Details: 5LOA2; 50% inhibition of 5-HETE formation; E -number means X 10^-no.; read-out: Concentration giving 50.00 % Inhibition (5LOA2)
# Protocol: 5-Lipoxygenase Assay Using Isolated Human Leukocytes (5LOA2)
# The formation of 5-HETE in human leukocytes is considered a measure of 5-lipoxygenase activity. The protocol is described in the following.
# Fresh heparinized or EDTA treated human blood is mixed with 6% dextran-3% dextrose in isotonic saline in the ratio 0.25 ml dextran solution per 1.0 ml blood. After mixing the blood is allowed to sit at room temperature for about 90 minutes while the RBC's settle. During this period, the plasma is removed with a plastic pipette to nalgens tubes.
# The plasma is centrifuged at 800 rpm ([…]) on the Beckman Td-b refrigerated centrifuge to remove the platelets (which remain in the supernatant). The pellet, consisting of leukocytes and erythrocytes, is treated with 10 ml 0.87% ammonium chloride at room temperature for four minutes, lysing the red cells. At the end of four minutes the cells are diluted with a 2×volume of phosphate buffered saline, pH 7.4, and centrifuged for ten minutes. The cells are washed three times with the phosphate buffered saline. Any of the pelleted cell matter which is not easily resuspended is discarded during the washings --the material contains platelets (12-lipoxygenase activity).
# After washing, the cells are resuspended in phosphate buffered saline containing 1.0 mM calcium and 0.5 mM magnesium. After counting the cells are diluted to 1.5-2.0×10^7 leukocytes per milliliter.
# To each polypropylene reaction tube is added 0.48 ml leukocytes in Ca-Mg phosphate buffered saline, pH 7.4; 1-5 μl test compound dissolved in DMSO and buffer; or DMSO for control tubes.
# The tubes preincubate at 37° C. for five minutes. […]
# A portion of the ethanol solution is injected into the HPLC system for 5-HETE quantitation.
# The HPLC system consists of Hewlett-Packard 1040A UV spectrophotometry system with an HP85 computer. […] Peaks are measured with a Hewlett Packard 3360A integrator. […] The flow is monitored at 235 nm for 5-HETE quatitation. […]
smiles,measurement,value
"COc1ccc(CCc2ccc(NC(=O)c3ccc(C)cc3O)cc2)cc1OC [Example 46, N-[4-[2-(3,4-Dimethoxyphenyl)ethyl]phenyl]-2-hydroxy-4-methylbenzamide]",IC50,1.69 µM
